Experimental data: patent US6737383B1, “Herbicidal oxadiazolidines” (priority 1999, dated 2004)

Columns and labels:
[1] = tested on: bedstraw; assay: Test B pre/postemergence bedstraw; format: in vivo, Galium aparine
Summary of the method: (§1)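 Herbicidal effect was estimated by eye on a ten-point control scale after plants spent twelve to sixteen days in a greenhouse following soil or foliar treatment. Foliar sprays targeted plants at one to four leaves; all doses were formulated in a non-phytotoxic solvent with surfactant.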

[2] = tested on: blackgrass; assay: Test B pre/postemergence blackgrass; format: in vivo, Alopecurus myosuroides
Summary of the method: as §1

[3] = tested on: surinam grass; assay: Test B pre/postemergence surinam grass; format: in vivo, Brachiaria decumbens
Summary of the method: as §1

[4] = tested on: cocklebur; assay: Test B pre/postemergence cocklebur; format: in vivo, Xanthium strumarium
Summary of the method: as §1

[5] = tested on: corn; assay: Test B pre/postemergence corn; format: in vivo, Zea mays
Summary of the method: as §1

[6] = tested on: crabgrass; assay: Test B pre/postemergence crabgrass; format: in vivo, Digitaria sanguinalis
Summary of the method: as §1

[7] = tested on: giant foxtail; assay: Test B pre/postemergence giant foxtail; format: in vivo, Setaria faberii
Summary of the method: as §1

[8] = tested on: pigweed; assay: Test B pre/postemergence pigweed; format: in vivo, Amaranthus retroflexus
Summary of the method: as §1

[9] = tested on: soybean; assay: Test B pre/postemergence soybean; format: in vivo, Glycine max
Summary of the method: as §1

[10] = tested on: sugar beet; assay: Test B pre/postemergence sugar beet; format: in vivo, Beta vulgaris
Summary of the method: as §1

[11] = tested on: velvetleaf; assay: Test B pre/postemergence velvetleaf; format: in vivo, Abutilon theophrasti
Summary of the method: as §1

[12] = tested on: wild oat; assay: Test B pre/postemergence wild oat; format: in vivo, Avena fatua
Summary of the method: as §1

[13] = tested on: purple nutsedge; assay: Test B pre/postemergence purple nutsedge; format: in vivo, Cyperus rotundus
Summary of the method: as §1

[14] = tested on: rice; assay: Test B flood test rice; format: in vivo, Oryza sativa
Summary of the method: (§2)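 Flood test on plants grown to the 2-leaf stage; treated plants kept in greenhouse twelve to sixteen days, then visually rated against controls on a 0 (no effect) to 10 (complete control) scale.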

[15] = tested on: smallflower flatsedge; assay: Test B flood test smallflower flatsedge; format: in vivo, Cyperus difformis
Summary of the method: as §2

[16] = tested on: bamyardgrass; assay: Test B flood test barnyardgrass; format: in vivo, Echinochloa crus-galli
Summary of the method: as §2

[17] = Postemergence, Rate 31 g/ha, visual rating, scale 0 to 10 (0 no effect, 10 complete control)
[18] = Preemergence, Rate 31 g/ha, visual rating, scale 0 to 10 (0 no effect, 10 complete control)
[19] = Preemergence, Rate 62 g/ha, scale of 0 to 10 where 0 is no effect and 10 is complete control
[20] = Preemergence, Rate 250 g/ha, scale of 0 to 10 where 0 is no effect and 10 is complete control
[21] = Rate 62 g/ha, Postemergence, scale 0 to 10 (0 no effect, 10 complete control)
[22] = Rate 125 g/ha, Postemergence, scale of 0 to 10 where 0 is no effect and 10 is complete control
[23] = Rate 125 g/ha, Preemergence, scale of 0 to 10 where 0 is no effect and 10 is complete control
[24] = Rate 250 g/ha, Postemergence, scale of 0 to 10 where 0 is no effect and 10 is complete control
[25] = Rate 31 g/ha, Pre-emergence section (flood test species), scale 0 to 10
[26] = Rate 62 g/ha, headed Pre-emergence (flood test species), scale 0 to 10 (0 no effect, 10 complete control)
[27] = Rate 125 g/ha, Pre-emergence, flood test species, scale 0 to 10 where 0 is no effect and 10 is complete control
[28] = Rate 250 g/ha, Pre-emergence, flood-test species, scale 0 to 10, 0 is no effect, 10 is complete control

CC(C)N(C(=O)n1oc(=O)n(C(C)C)c1=O)c1cnccn1 [Compound 296]
0: Bedstraw plant response rating [1, 17] | Bedstraw plant response rating [1, 18] | Bedstraw plant response rating [1, 19] | Bedstraw plant response rating [1, 20] | Bedstraw plant response rating [1, 21] | Bedstraw plant response rating [1, 22] | Bedstraw plant response rating [1, 23] | Plant response rating, Bedstraw [1, 24] | Blackgrass plant response rating [2, 17] | Blackgrass plant response rating [2, 18] | Blackgrass plant response rating [2, 19] | Blackgrass plant response rating [2, 20] | Blackgrass plant response rating [2, 21] | Blackgrass plant response rating [2, 22] | Blackgrass plant response rating [2, 23] | Plant response rating, Blackgrass [2, 24] | B. signalgrass plant response rating [3, 17] | B. signalgrass plant response rating [3, 18] | B. signalgrass plant response rating [3, 19] | B. signalgrass plant response rating [3, 20] | B. signalgrass plant response rating [3, 21] | B. signalgrass plant response rating [3, 22] | B. signalgrass plant response rating [3, 23] | Plant response rating, B. signalgrass [3, 24] | Cocklebur plant response rating [4, 17] | Cocklebur plant response rating [4, 18] | Cocklebur plant response rating [4, 19] | Cocklebur plant response rating [4, 20] | Cocklebur plant response rating [4, 21] | Cocklebur plant response rating [4, 22] | Cocklebur plant response rating [4, 23] | Plant response rating, Cocklebur [4, 24] | Corn plant response rating [5, 17] | Corn plant response rating [5, 18] | Corn plant response rating [5, 19] | Corn plant response rating [5, 20] | Corn plant response rating [5, 21] | Corn plant response rating [5, 22] | Corn plant response rating [5, 23] | Plant response rating, Corn [5, 24] | Crabgrass plant response rating [6, 17] | Crabgrass plant response rating [6, 18] | Crabgrass plant response rating [6, 19] | Crabgrass plant response rating [6, 20] | Crabgrass plant response rating [6, 21] | Crabgrass plant response rating [6, 22] | Crabgrass plant response rating [6, 23] | Plant response rating, Crabgrass [6, 24] | Giant foxtail plant response rating [7, 17] | Giant foxtail plant response rating [7, 18] | Giant foxtail plant response rating [7, 19] | Giant foxtail plant response rating [7, 20] | Giant foxtail plant response rating [7, 21] | Giant foxtail plant response rating [7, 22] | Giant foxtail plant response rating [7, 23] | Plant response rating, Giant foxtail [7, 24] | Redroot pigweed plant response rating [8, 17] | Redroot pigweed plant response rating [8, 19] | Redroot pigweed plant response rating [8, 20] | Redroot pigweed plant response rating [8, 21] | Redroot pigweed plant response rating [8, 22] | Redroot pigweed plant response rating [8, 23] | Plant response rating, Redroot pigweed [8, 24] | Soybean plant response rating [9, 17] | Soybean plant response rating [9, 19] | Soybean plant response rating [9, 20] | Soybean plant response rating [9, 21] | Soybean plant response rating [9, 22] | Soybean plant response rating [9, 23] | Sugarbeets plant response rating [10, 17] | Sugarbeets plant response rating [10, 19] | Sugarbeets plant response rating [10, 20] | Sugarbeets plant response rating [10, 21] | Sugarbeets plant response rating [10, 22] | Sugarbeets plant response rating [10, 23] | Plant response rating, Sugarbeets [10, 24] | Velvetleaf plant response rating [11, 17] | Velvetleaf plant response rating [11, 19] | Velvetleaf plant response rating [11, 20] | Velvetleaf plant response rating [11, 21] | Velvetleaf plant response rating [11, 22] | Velvetleaf plant response rating [11, 23] | Plant response rating, Velvetleaf [11, 24] | Wild oats plant response rating [12, 17] | Wild oats plant response rating [12, 19] | Wild oats plant response rating [12, 20] | Wild oats plant response rating [12, 21] | Wild oats plant response rating [12, 22] | Plant response rating, Wild oats [12, 24] | Nutsedge plant response rating [13, 17] | Nutsedge plant response rating [13, 19] | Nutsedge plant response rating [13, 21] | Nutsedge plant response rating [13, 22] | Nutsedge plant response rating [13, 23] | Plant response rating, Nutsedge [13, 24] | Rice plant response rating [14, 25] | Rice plant response rating [14, 26] | Rice plant response rating [14, 27] | Rice plant response rating [14, 28] | S. Flatsedge plant response rating [15, 25] | S. Flatsedge plant response rating [15, 26] | S. Flatsedge plant response rating [15, 27] | S. Flatsedge plant response rating [15, 28] | Barnyardgrass plant response rating [16, 25] | Barnyardgrass plant response rating [16, 26] | Barnyardgrass plant response rating [16, 27] | Barnyardgrass plant response rating [16, 28]
1: Plant response rating, Soybean [9, 24]
